Biological target: mIgG A22-4′ (anti-S. flexneri serotype 6 LPS monoclonal antibody) binding to SF6 LPS
Assay: Inhibition ELISA: binding of mIgG A22-4′ to synthetic oligosaccharides (inhibition of mIgG binding to SF6 LPS)
Set-up: species or system mouse
Conditions: concentration of oligosaccharide required to inhibit 50% of mIgG A22-4′ (0.025 μg/ml) binding to purified SF6 LPS (strain Sc544); oligosaccharides tested as propyl glycoside; max 2.5 mM; ≤ = inferior to but close to the value
Description: 2) ELISA for IC50 Measurements
The binding of the available mIgG A22-4′ to the synthetic oligosaccharides was measured as previously described (Phalipon A. et al (J. Immunol. 176 1686 (2006)). Briefly, the mIgG concentration to be used was defined in the first step. To do so, a standard curve was established for mIgG A22-4′. The mIgG was incubated at different concentrations, overnight at 4° C., on microtiter plates coated with SF6 LPS purified from the strain SF6 Sc544 at a concentration of […] in a carbonate buffer (pH 9.6), then with PBS-BSA 1% for 30 min at 4° C. After washing with PBS-Tween 20 (0.05%), alkaline phosphatase conjugated anti-mouse IgG was added at a dilution of 1/5,000 (Sigma-Aldrich) for 1 h at 37° C. After washing with PBS-Tween 20 (0.05%), the substrate was added (12 mg of p-nitrophenyl phosphate in 1.2 mL of 1 M Tris-HCl buffer (pH 8.8) and 10.8 mL of 5 M NaCl). Once the color developed, the plate was read at 405 nm Dynatech MR400 microplate reader). A standard curve OD=f([Ab]) was fitted to the quadratic equation Y=aX2+bX+c, where Y is the OD and X is the Ab concentration. A correlation factor (r^2) of 0.99 was routinely obtained. The mIgG A22-4′ concentration to be used in the second step for measuring the IC50, which is defined as the concentration of oligosaccharides required to inhibit 50% of mIgG binding to LPS, was chosen as follows. It corresponds to the minimal concentration of mAb which gives the maximal OD on the standard curve.
The maximum concentration tested was 2.5 mM for all oligosaccharides. Then, measurement of unbound mIgG was performed as described above using microtiter plates coated with purified SF6 LPS. The mAb concentration was deduced from the standard curve. A 100% unbound mIgG concentration was defined for the mAb incubated in the same conditions but without any oligosaccharide. […]
The binding of mIgG A22-4′ to the synthetic and oligo- or polysaccharides was evaluated in inhibition ELISA (Table B)

Structure (SMILES) | IC50 [µM]
CCCO[C@@H]1O[C@@H](C)[C@H](O)[C@@H](OC(C)=O)[C@H]1O[C@@H]1O[C@H](CO)[C@H](O)[C@H](O[C@@H]2O[C@H](C(=O)O)[C@H](O[C@@H]3O[C@@H](C)[C@H](O)[C@@H](O)[C@H]3O[C@@H]3O[C@@H](C)[C@H](O)[C@@H](OC(C)=O)[C@H]3O)[C@H](O)[C@H]2O)[C@H]1NC(C)=O [AcCDABAcC, Propyl 3-O-acetyl-α-L-rhamnopyranosyl-(1→2)-α-L-rhamnopyranosyl-(1→4)-β-D-galactopyranosyluronic acid-(1→3)-2-acetamido-2-deoxy-β-D-galactopyranosyl-(1→2)-3-O-acetyl-α-L-rhamnopyranoside] | ≤ 500
CCCO[C@@H]1O[C@H](CO)[C@H](O)[C@H](O[C@@H]2O[C@H](C(=O)O)[C@H](O[C@@H]3O[C@@H](C)[C@H](O)[C@@H](O)[C@H]3O[C@@H]3O[C@@H](C)[C@H](O)[C@@H](OC(C)=O)[C@H]3O)[C@H](O)[C@H]2O)[C@H]1NC(C)=O [AcCDAB, Propyl 3-O-acetyl-α-L-rhamnopyranosyl-(1→2)-α-L-rhamnopyranosyl-(1→4)-β-D-galactopyranosyluronic acid-(1→3)-2-acetamido-2-deoxy-β-D-galactopyranoside] | 36
CCCO[C@@H]1O[C@H](CO)[C@H](O)[C@H](O[C@@H]2O[C@H](C(=O)O)[C@H](O[C@@H]3O[C@@H](C)[C@H](O)[C@@H](O)[C@H]3O[C@@H]3O[C@@H](C)[C@H](O)[C@@H](O)[C@H]3O)[C@H](O)[C@H]2O)[C@H]1NC(C)=O [CDAB, Propyl α-L-rhamnopyranosyl-(1→2)-α-L-rhamnopyranosyl-(1→4)-β-D-galactopyranosyluronic acid-(1→3)-2-acetamido-2-deoxy-β-D-galactopyranoside] | 16
